{"source": "patent US9120749B2", "about": "“Quinoline derivatives and MELK inhibitors containing the same” (ONCOTHERAPY SCIENCE, INC., priority 2010, dated 2015)", "molecular_target": "MELK (Homo sapiens, UniProt Q14680)", "sequence (Q14680 whole entry, looked up)": "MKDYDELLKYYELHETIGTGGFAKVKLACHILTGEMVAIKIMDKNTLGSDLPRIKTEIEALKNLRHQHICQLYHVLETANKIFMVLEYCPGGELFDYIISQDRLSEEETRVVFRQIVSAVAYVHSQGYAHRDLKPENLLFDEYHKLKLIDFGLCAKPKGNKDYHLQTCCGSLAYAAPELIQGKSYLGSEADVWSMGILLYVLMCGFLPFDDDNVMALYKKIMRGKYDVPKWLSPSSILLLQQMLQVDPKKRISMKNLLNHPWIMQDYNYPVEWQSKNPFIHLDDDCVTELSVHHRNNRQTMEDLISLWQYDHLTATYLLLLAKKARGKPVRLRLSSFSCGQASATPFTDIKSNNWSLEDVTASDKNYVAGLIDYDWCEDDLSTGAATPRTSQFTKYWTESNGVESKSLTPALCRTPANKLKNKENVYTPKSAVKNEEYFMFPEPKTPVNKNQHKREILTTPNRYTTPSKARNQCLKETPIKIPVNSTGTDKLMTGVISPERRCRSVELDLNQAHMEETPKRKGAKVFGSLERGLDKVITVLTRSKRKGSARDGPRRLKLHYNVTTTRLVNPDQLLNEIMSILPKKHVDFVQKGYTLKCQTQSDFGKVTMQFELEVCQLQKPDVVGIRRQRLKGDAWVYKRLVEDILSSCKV", "assay": "Kinase assay: MELK activity, phosphorylation of FITC-labeled histone H3 peptide measured by IMAP fluorescence polarization", "type": "biochemical", "conditions": "read-out: IC50 (μM) (kinase assay)", "protocol": "MELK activity was determined in the presence or absence of compounds using fluorescein isothiocyanate-labeled (FITC-labeled) histone H3 peptide as a substrate. […] Test compounds were dissolved in DMSO at 12.5 mM and then serially diluted as the DMSO concentration in the assays to be 1%. […] The reaction was stopped by the addition of three fold assay volume of progressive binding solution. Following 0.5 hour incubation at room temperature, fluorescence polarization was measured by Wallac EnVision 2103 multilabel reader (PerkinElmer).", "key": {"[1]": {"conditions": "MELK kinase assay, IMAP fluorescence polarization, 50 micro-M ATP"}}, "note": "Where a name gives a salt, the structure may show the parent alone. Read-outs that look alike come from different tables or passages of the source."}
{"compound": "CN(C)C[C@H]1CC[C@H](Nc2c(C(=O)C3CC3)cnc3cc(C(F)(F)F)c(-c4cc(F)c(O)c(Cl)c4)cc23)CC1", "note": "[Example 841]", "values": [{"measurement": "IC50", "setting": "[1]", "value": 0.77, "unit": "µM"}]}
{"compound": "CN(C)[C@H]1CC[C@H](Nc2c(C(=O)C3CC3)cnc3ccc(-c4cc(Cl)c(O)c(Cl)c4)cc23)CC1", "note": "[Example 941, cyclopropyl(6-(3,5-dichloro-4-hydroxyphenyl)-4-((1R,4R)-4-(dimethylamino)cyclohexylamino)quinolin-3-yl)methanone, dihydrobromide]", "values": [{"measurement": "IC50", "setting": "[1]", "value": 0.0016, "unit": "µM"}]}
{"compound": "CC(=O)c1cnc2cc(C)c(-c3cc(F)c(O)c(Cl)c3)cc2c1Nc1ccc(CN(C)C)cc1", "note": "[Example 858, 1-(6-(3-chloro-5-fluoro-4-hydroxy-phenyl)-4-((4-((dimethylamino)methyl)phenyl)amino)-7-methylquinolin-3-yl)ethanone hydrochloride]", "values": [{"measurement": "IC50", "setting": "[1]", "value": 0.2, "unit": "µM"}]}
{"compound": "CC(=O)c1cnc2cc(C)c(-c3cc(F)c(O)c(Cl)c3)cc2c1Nc1ccc(N2CCN(C)CC2)nc1", "note": "[Example 856, 1-(6-(3-chloro-5-fluoro-4-hydroxy-phenyl)-7-methyl-4-((6-(4-methyl-piperazin-1-yl)pyridin-3-yl)amino)quinolin-3-yl)ethanone hydrochloride]", "values": [{"measurement": "IC50", "setting": "[1]", "value": 0.46, "unit": "µM"}]}
{"compound": "CN(CCO)C[C@H]1CC[C@H](Nc2c(C(=O)C3CC3)cnc3ccc(-c4cc(Cl)c(O)c(Cl)c4)cc23)CC1", "note": "[Example 635, cyclopropyl(6-(3,5-dichloro-4-hydroxyphenyl)-4-(1R,4R)-4-(((2-hydroxyethyl)(methyl)amino)methyl)cyclohexylamino)quinolin-3-yl)methanone hydrochloride]", "values": [{"measurement": "IC50", "setting": "hydrochloride", "value": 0.00074, "unit": "µM"}]}
{"compound": "N[C@H]1CC[C@H](Nc2c(C(=O)C3CC3)cnc3ccc(-c4cc(F)c(O)c(Cl)c4)cc23)CC1", "note": "[Example 936, (4-((1R,4R)-4-aminocyclohexylamino)-6-(3-chloro-5-fluoro-4-hydroxyphenyl)quinolin-3-yl)(cyclopropyl)methanone, hydrochloride]", "values": [{"measurement": "IC50", "setting": "[1]", "value": 0.0019, "unit": "µM"}]}
{"compound": "CN(C)C[C@H]1CC[C@H](Nc2c(C(=O)C3CC3)cnc3cc(C(F)(F)F)c(-c4cc(Cl)c(O)c(Cl)c4)cc23)CC1", "note": "[Example 842]", "values": [{"measurement": "IC50", "setting": "[1]", "value": 0.93, "unit": "µM"}]}
{"compound": "CN(C)C[C@H]1CC[C@H](Nc2c(C(=O)C3CC3)cnc3ccc(-c4cc(Cl)c(O)c(Cl)c4)cc23)CC1", "note": "[Example 324, cyclopropyl(6-(3,5-dichloro-4-hydroxyphenyl)-4-(trans-4-((dimethylamino)methyl)cyclohexylamino)quinolin-3-yl)methanone]", "values": [{"measurement": "IC50", "setting": "[1]", "value": 0.00085, "unit": "µM"}]}
{"compound": "CC(=O)c1cnc2ccc(-c3cc(Cl)c(O)c(Cl)c3)cc2c1N[C@H]1CC[C@H](CN(C)C)CC1", "note": "[Example 944, 1-{6-(3,5-Dichloro-4-hydroxyphenyl)-4-[trans-4-((dimethylamino)methyl)cyclohexylamino]quinolin-3-yl}ethanone hydrochloride]", "values": [{"measurement": "IC50", "setting": "MELK kinase assay, IMAP fluorescence polarization, 50 micro-M ATP, hydrochloride", "value": 0.00094, "unit": "µM"}]}
{"compound": "CN1CCN(c2ccc(Nc3c(C(=O)C4CC4)cnc4cc(C(F)(F)F)c(-c5cc(Cl)c(O)c(Cl)c5)cc34)cn2)CC1", "note": "[Example 839, cyclopropyl(6-(3,5-dichloro-4-hydroxy-phenyl)-4-(6-(4-methylpiperazin-1-yl)pyridin-3-ylamino)-7-(trifluoro-methyl)quinolin-3-yl)methanone]", "values": [{"measurement": "IC50", "setting": "[1]", "value": 4.2, "unit": "µM"}]}
{"compound": "CC(C)C(=O)c1cnc2ccc(-c3cc(F)c(O)c(Cl)c3)cc2c1N[C@H]1CC[C@H](N)CC1", "note": "[Example 937, 1-(4-((1R,4R)-4-aminocyclohexylamino)-6-(3-chloro-5-fluoro-4-hydroxyphenyl)quinolin-3-yl)-2-methylpropan-1-one, dihydrochloride]", "values": [{"measurement": "IC50", "setting": "[1]", "value": 0.0054, "unit": "µM"}]}
{"compound": "CN(C)[C@H]1CC[C@H](Nc2c(C(=O)C3CC3)cnc3ccc(-c4cc(F)c(O)c(Cl)c4)cc23)CC1", "note": "[Example 264, (6-(3-chloro-5-fluoro-4-hydroxyphenyl)-4-((1R,4R)-4-(dimethylamino)cyclohexylamino)quinolin-3-yl)(cyclopropyl)methanone]", "values": [{"measurement": "IC50", "setting": "[1]", "value": 0.0029, "unit": "µM"}]}
